In PubChem BioAssay (NCI):
Values joined by “and” are separate entries in the source; they are usually repeats but may differ in a detail not shown here. Equal values may be shown once.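 Grown in 96-well plates, cells were treated for 48 hours with each compound at five concentrations. Insufficient inhibition: endpoint recorded as highest concentration tested. The concentration for 50% growth inhibition is given as GI50. TGI marks complete inhibition of growth.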

How the values were obtained:
Test in all cases: DTP human tumour cell line panel, 48 h
[1] = tested on: HT29 colon
[2] = tested on: OVCAR-4 ovarian
[3] = tested on: CCRF-CEM leukemia
[4] = tested on: RPMI-8226 leukemia
[5] = tested on: OVCAR-5 ovarian
[6] = tested on: KM12 colon
[7] = tested on: SR leukemia
[8] = tested on: EKVX NSCLC
[9] = tested on: SF-539 CNS
[10] = tested on: 786-0 renal

Row | Compound | GI50 [1] | TGI [1] | GI50 [2] | TGI [2] | GI50 [3] | TGI [3] | GI50 [4] | TGI [4] | GI50 [5] | TGI [5] | GI50 [6] | TGI [6] | TGI [7] | GI50 [8] | TGI [8] | GI50 [9] | TGI [9] | GI50 [10] | TGI [10] | GI50 [7]
1 | COc1ccc2c(O)c(/C=C3\N=Nc4ncccc43)oc2c1C[C@@H]1CCNC[C@H]1F | 0.307 µM | 2.09 µM | 1.41 µM | 3.45 µM | 0.141 µM | 0.993 µM | 0.266 µM | 0.984 µM | 1.02 µM | 8.29 µM | 0.314 µM | 1.4 µM | 0.193 µM | 0.426 µM | 2.56 µM | 0.428 µM | 1.99 µM | 0.362 µM | 1.59 µM | 
2 | COc1cc2c(c(OC)c1OC)-c1ccc(SC)c(=O)cc1[C@@H](NC(=O)C(F)(F)F)CC2 |  | 0.182 µM |  | > 100 µM |  | > 100 µM |  | > 100 µM |  | > 100 µM |  | < 0.0631 µM | > 100 µM |  | > 100 µM |  | < 0.01 µM |  | 38.6 µM | 
3 | [N-]=[N+]=NCCCn1c2c(c3ccc([N+](=O)[O-])cc3c1=O)C(=O)c1cc(-c3ccccc3)ccc1-2 | > 100 µM | > 100 µM | > 100 µM | > 100 µM | > 100 µM | > 100 µM | > 100 µM | > 100 µM | > 100 µM | > 100 µM | > 100 µM | > 100 µM | > 100 µM | > 100 µM | > 100 µM | > 100 µM | > 100 µM | > 100 µM | > 100 µM | 37.2 µM
4 | CS(=O)(=O)c1cccc(Nc2ncc3cc(-c4ccccc4Cl)ccc3n2)c1 | 1.01 µM | 19.1 µM | 1.51 µM | > 33.3 µM | 1.47 µM | > 33.3 µM | 1.47 µM | 21.4 µM | 1.88 µM | > 33.3 µM | 1.2 µM | > 33.3 µM | > 33.3 µM | 1.37 µM | > 33.3 µM | 0.94 µM | 25.5 µM | 1.38 µM | > 33.3 µM | 0.8 µM
5 | O=C(N=c1nc(NC(=O)c2ccccc2)ss1)c1ccccc1 |  | 37.6 µM |  | > 100 µM |  | > 100 µM |  | 77.6 µM |  | > 100 µM |  | > 100 µM | 75.4 µM |  | > 100 µM |  | 37.9 µM |  | > 100 µM | 
6 | CC(=O)Nc1cc2cc(NS(=O)(=O)c3ccc(Cl)c(Cl)c3)ccc2oc1=O |  | > 100 µM |  | > 100 µM |  | > 100 µM |  | > 100 µM |  | > 100 µM |  | 92.3 µM | > 100 µM |  | > 100 µM |  | 56.1 µM |  | 32.4 µM | 
7 | CCC(C)C1=C(O)[N+]2([O-])Oc3ccc(C4=C(O)C(=O)C(c5ccc(O)cc5)=C(O)C4=O)cc3OC2(C(C)CC)C(=O)N1O (stereo not given) | 31.4 µM | > 100 µM | > 100 µM | > 100 µM | 13.1 µM | 76.7 µM | 6.74 µM | > 100 µM | > 100 µM | > 100 µM | 40.3 µM | > 100 µM | 7.81 µM | 23.7 µM | > 100 µM | 15.8 µM | > 100 µM | 26.1 µM | > 100 µM | 1.25 µM
8 | CCOC(=O)c1c(C)nc2c(c1N)/C(=C/c1ccccn1)C(=O)N2Cc1ccccc1 | 1.32 µM | 3.14 µM | 1.51 µM | > 50 µM | 1.56 µM | > 50 µM | 1.21 µM | 3.22 µM | 1.04 µM | 2.68 µM | 1.15 µM | 2.85 µM | > 50 µM | 1.21 µM | > 50 µM | 0.882 µM | 1.77 µM | 0.867 µM | 1.68 µM | 1.37 µM
9 | C#C[C@@]1(O)[C@@H](CO)O[C@@H](n2cc(C(F)(F)F)c3c(N)ncnc32)[C@@H]1O | 0.207 µM | 8.3 µM | 2.41 µM | > 100 µM | 0.487 µM | > 37.2 µM | 0.886 µM | 4.56 µM | 1.59 µM | 7.06 µM | 0.365 µM | > 30.4 µM | 1.7 µM | 1.62 µM | > 25.9 µM | 0.86 µM | 2.71 µM | 2.07 µM | > 100 µM | 0.306 µM
10 | CCN(CC)c1ccc(-c2cc(-c3cc(OC)c(OC)c(OC)c3)nc(N3CCC(O)CC3)c2C#N)cc1 | 0.277 µM | 1.28 µM | 0.789 µM | > 100 µM | 0.6 µM | > 100 µM | 0.232 µM | 4.78 µM | 0.469 µM | > 21.8 µM | 0.512 µM | 2.98 µM | 2.61 µM | 0.613 µM | > 100 µM | 0.554 µM | 2.47 µM | 0.337 µM | 20.3 µM | 0.399 µM
11 | COc1ccc(-c2cc(-c3ccc(Cl)cc3)nc(NCCCCNc3ccnc4cc(Cl)ccc34)n2)cc1 | 1.68 µM | 3.57 µM | 1.72 µM | 3.49 µM | 2.6 µM | > 100 µM | 2.14 µM | 5.66 µM | 15.4 µM | 29.5 µM | 1.9 µM | 3.72 µM | > 100 µM | 13.2 µM | 35.1 µM | 6.8 µM | 20.9 µM | 1.62 µM | 3.02 µM | 0.708 µM
12 | O=C1Cc2cc(CCn3cncn3)c(Cl)cc2N1 | > 100 µM | > 100 µM | > 100 µM | > 100 µM | 3.5 µM | > 100 µM | > 100 µM | > 100 µM | > 100 µM | > 100 µM | 5.42 µM | > 100 µM | > 100 µM | 0.825 µM | > 100 µM | > 100 µM | > 100 µM | > 100 µM | > 100 µM | 11.8 µM
13 | Cc1ccc(-c2nc(-c3nccc4ccccc34)oc2-c2ccccc2)cc1 |  | > 100 µM |  | > 100 µM |  | > 100 µM |  | > 100 µM |  | > 100 µM |  | > 100 µM | > 100 µM |  | 64.5 µM |  | > 100 µM |  | > 100 µM | 
14 | CCCCNC(=S)OCCC(C)CCCC(C)C (stereo not given) |  | > 100 µM |  | > 100 µM |  | > 100 µM |  | > 100 µM |  | > 100 µM |  | > 100 µM | > 100 µM |  | > 100 µM |  | > 100 µM |  | > 100 µM | 
15 | Cc1c2ccncc2c(C)c2c1sc1ccccc12 |  | 22.6 µM |  | 37.8 µM |  | 30.4 µM |  | 48 µM |  | 46.7 µM |  | 31.2 µM | 8.98 µM |  | 25.2 µM |  | 21.1 µM |  | 17.5 µM | 
16 | N#Cc1nc(C#N)c(Sc2ccccc2)c(Sc2ccccc2)c1Sc1ccccc1 | 0.407 µM |  | 2.74 µM | > 27.8 µM | 0.417 µM | > 100 µM | 0.638 µM | > 28.3 µM | 2.34 µM | 4.68 µM | 1.67 µM | 3.26 µM | > 100 µM | 1.25 µM | > 100 µM | 0.399 µM | 1.31 µM | 0.392 µM |  | 0.305 µM
17 | O=C(Nc1ccccc1)OC1OC(COC(=O)c2ccccc2)C(OC(=O)c2ccccc2)C1OS(=O)(=O)c1ccc([N+](=O)[O-])cc1 (stereo not given) |  | > 100 µM |  | > 100 µM |  | > 100 µM |  | > 100 µM |  | > 100 µM |  | > 100 µM | > 100 µM |  | > 100 µM |  | > 100 µM |  | > 100 µM | 
18 | Clc1ccc2c(c1)N(C1CCCN(Cc3ccccc3)C1)c1ccccc1S2 (stereo not given) | 11.5 µM | > 100 µM | 18 µM | > 100 µM | 4.89 µM | > 100 µM | 3.91 µM | > 100 µM | 14.6 µM | > 100 µM | 4.73 µM | > 100 µM | 32.7 µM | 4.22 µM | 79.9 µM | 4.61 µM | 56.2 µM | 4.44 µM | > 100 µM | 3.01 µM
19 | O=C1NC2(CCCCC2)C(=O)N1CCN(CCCl)CCCl | > 25 µM | > 250 µM | > 25 µM | > 250 µM | 12.2 µM | 25 µM and 212 µM | > 25 µM | > 250 µM | > 25 µM | > 250 µM | > 25 µM | > 194 µM | 25 µM | > 25 µM | > 250 µM | > 25 µM | > 250 µM |  | > 25 µM | 
20 | COS(C)(=O)=O |  | > 2 µM |  | > 2 µM |  | > 2 µM |  | > 2 µM |  | > 2 µM |  | > 2 µM | > 2 µM |  | > 2 µM |  | > 2 µM |  | > 2 µM | 
21 | Fc1ccc(-c2nn3ccccc3c2-c2ccncc2)cc1 | 14 µM | > 25 µM | > 25 µM | > 25 µM | > 25 µM | > 25 µM | > 25 µM | > 25 µM | > 25 µM | > 25 µM | > 25 µM | > 25 µM | > 25 µM | > 20.2 µM | > 25 µM | > 25 µM | > 25 µM | > 25 µM | > 25 µM | > 25 µM
22 | CCOC(=O)c1[nH]c2cc(OC)c(OC)cc2c1CN(C)C |  | > 100 µM |  | > 100 µM |  | > 100 µM |  | > 100 µM |  | > 100 µM |  | > 100 µM | > 100 µM |  | > 100 µM |  | > 100 µM |  | > 100 µM | 
23 | c1ccc(Oc2ccc(Nc3ncc(-c4ccccc4)o3)cc2)cc1 | > 25 µM | > 25 µM | > 25 µM | > 25 µM | > 25 µM | > 25 µM | > 25 µM | > 25 µM | > 25 µM | > 25 µM | > 25 µM | > 25 µM | > 25 µM | > 25 µM | > 25 µM | > 25 µM | > 25 µM | > 25 µM | > 25 µM | > 25 µM
24 | Nc1ncc(-c2ccc3ncnc(N4CCc5ccc(Cl)cc54)c3c2)cc1C(F)(F)F | 1.83 µM | 16.2 µM | 1.07 µM | 3.23 µM | 3.87 µM | > 100 µM | 2.82 µM | > 100 µM | 0.916 µM | 14.4 µM | 2.48 µM | 48.3 µM | > 100 µM | 0.507 µM | 18.7 µM | 1.61 µM | 10.4 µM | 1.6 µM | 12 µM | 2.55 µM
